According to publication PMC10249896, “AI-Assisted chemical probe discovery for the understudied Calcium-Calmodulin Dependent Kinase, PNCK” (PLOS Computational Biology, 2023):
Several values for one entry are separate records, joined by “and”; a condition that tells them apart may be missing. Equal values may be shown once. Read-outs that look alike come from different tables or passages of the source.

Key:
[1] = target: T1, PNCK Nano-luciferase fusion (Homo sapiens, UniProt Q6P2M8); assay: NanoBRET Target Engagement Intracellular Kinase Assay, cell-based PNCK binding screen and dose response in HEK293 cells; settings: for IC50: 8-point concentration-response; for dose response raw signal: replicate values; for NanoBRET binding, result in words: cell-based screen / comparison with parent hit
T1 construct: host or cells: HEK293
T1 sequence (Q6P2M8 whole entry, the tested form may be a part): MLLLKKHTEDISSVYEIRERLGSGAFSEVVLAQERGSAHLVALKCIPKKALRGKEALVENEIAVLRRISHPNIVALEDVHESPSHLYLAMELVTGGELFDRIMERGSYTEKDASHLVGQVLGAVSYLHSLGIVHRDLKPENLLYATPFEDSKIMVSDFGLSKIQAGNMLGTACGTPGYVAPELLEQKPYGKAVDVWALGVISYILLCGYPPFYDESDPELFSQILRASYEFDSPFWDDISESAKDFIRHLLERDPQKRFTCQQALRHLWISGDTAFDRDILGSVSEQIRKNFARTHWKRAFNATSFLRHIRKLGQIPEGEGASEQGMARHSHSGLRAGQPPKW
Experimental: The NanoBRET Target Engagement Intracellular Kinase Assay (Promega N2520) is a cell-based binding screen which reads loss of BRET signal as a result of target binding. A PNCK Nano-luciferase fusion vector plasmid was generated custom by Promega. The K-10 tracer was used for the assay, as determined by Promega. The plasmid was maxiprepped by Genewiz for use in all future assays. HEK293 cells were seeded in a T175 flask in DMEM with 10% FBS. The following day, cells were counted to 10,000, resuspended in assay media (Optimem with no phenol red, 1% FBS). Plasmid and transfection reagent (Fugene HD, Promega E2311) were added to the mixture and cells were seeded in a white 96-well plate. After 20–24 hours, media was changed, and the assay proceeded according to protocol. K10 tracer was added at the recommended concentration of 1uM while compounds were initially screened at both 10uM and 1uM. Cells incubated with compound at 37 degrees Celsius for a maximum of 2 hours before the plate was read using Clariostar Plus. Data was normalized to Staurosporine and DMSO controls. For compounds selected for further analysis, dose response curves were generated using the same testing protocol but at 8 different concentrations: 24uM, 12uM, 6uM, 3uM, 1.5uM, .75uM 0.375uM and 0.1875uM. UM195 was tested with concentrations from 12uM to 0.09375. Similarly, compounds from the analog by catalog analysis were tested at concentrations from 24uM to 0.1875uM.
(§1) Data analysis of ADP Kinase Glo results were carried out per the manufacturer’s instructions. Results were represented as a percent decrease in activity. Data was normalized to staurosporine (positive control) as 100% decrease and DMSO (negative control) as a 0% decrease. Data for NanoBRET was analyzed by dividing the acceptor by the donor emission and […] to obtain raw millibret units (mBU). Background was subtracted using control emission averages. Data was normalized to positive and negative controls of staurosporine and DMSO. Concentration-response curves were plotted in GraphPad Prism 8 and IC50s were extrapolated using non-linear fit with concentrations transformed to logarithmic scale. Baseline was held constant and represented the average mBU of staurosporine controls while the top was constrained to represent the average mBU of DMSO controls. Error bars on dose-response curves represent standard deviations.

[2] = target: T1, PNCK Nano-luciferase fusion; assay: as above
[3] = target: T2, GST-tagged PNCK recombinant protein (Homo sapiens, UniProt Q6P2M8); assay: ADP-Glo Kinase Assay, biochemical PNCK inhibitor screen; settings: for inhibition at 10 µM: read-out: Avg. Normalized % Inhibition, 10uM, ADP Kinase Glo
T2 construct: GST; purchased Novus NBP1-99886
Experimental: ADP-Glo Kinase Assay (V6930, Promega) was used to screen the first round of compounds against PNCK. […] Autocamtide-II (GenScript RP10271) was used as the peptide substrate. This peptide was dissolved in water and prepared immediately prior to the assay. Calcium/Calmodulin 10X (Abcam ab189137) solution was used to create a custom kinase buffer: 40mM Tris,pH 7.5; 20mM MgCl2; 0.1mg/ml BSA; 50μM DTT and Ca2+/Calmodulin solution (0.03μg/μl, Calmodulin, 1mM Tris,pH 7.3, 0.5mM CaCl2). […] A standard curve was then done to determine the amount of protein needed to generate a signal in the linear range of the ATP curve. 100ng of PNCK and 2ng of substrate was used per well in the 96-well plate format of this assay. […] Plates were read using the Clariostar Plus. Data was normalized to a DMSO and staurosporine controls.
as §1

[4] = Aqueous solubility observed on testing; assay type: physicochemical; settings: stated on testing
[5] = compound 1uM, HEK293, K10 tracer 1uM, normalized to staurosporine and DMSO, read-out: Avg. Normalized % Inhibition, 1uM, Nanobret
[6] = compound 10uM, HEK293, K10 tracer 1uM, normalized to staurosporine and DMSO, read-out: Avg. Normalized % Inhibition, 10uM, Nanobret
[7] = compound 10uM, 25uM ATP, normalized to DMSO and staurosporine controls

## COC(=O)c1cnc(Sc2nnc(-c3cccc4ccccc34)o2)cn1 [UM_254]
[1]; HEK293
  IC50: 2680 nM
[1]; Concentration 1.25E-06 M
  Dose-Response Curve Data (NanoBRET signal, replicates): 7.15 and 8.63 and 7.69 and 7.36
[1]; Concentration 2.00E-05 M
  Dose-Response Curve Data (NanoBRET signal, replicates): 4.80 and 4.63 and 5.32 and 4.99
[1]; Concentration 2.50E-06 M
  Dose-Response Curve Data (NanoBRET signal, replicates): 7.32 and 7.44 and 7.90 and 7.31
[1]; Concentration 5.00E-06 M
  Dose-Response Curve Data (NanoBRET signal, replicates): 6.60 and 7.13 and 7.18 and 7.54
[1]; Concentration 6.25E-07 M
  Dose-Response Curve Data (NanoBRET signal, replicates): 7.54 and 7.48 and 8.39 and 8.00
[1]; [5]
  inhibition at 1 µM: 16.1%
[1]; [6]
  inhibition at 10 µM: 68.2%
[2]; Concentration 1.00E-05 M
  Dose-Response Curve Data (NanoBRET signal, replicates): 5.13 and 5.39 and 6.19 and 4.97
[2]; Concentration 1.56E-07 M
  Dose-Response Curve Data (NanoBRET signal, replicates): 8.00 and 8.01 and 8.11 and 8.38
[2]; Concentration 3.13E-07 M
  Dose-Response Curve Data (NanoBRET signal, replicates): 8.00 and 8.43 and 7.99 and 7.89

## O=C1CN(C(=O)COc2ccc3c4c(c(=O)oc3c2)CCCCC4)CCN1 [UM_259]
[1]; HEK293
  IC50: 2900 nM
[1]; Concentration (M) 1.00E-05
  dose response raw signal: 4.13 and 4.39 and 5.19 and 4.12
[1]; Concentration (M) 1.25E-06
  dose response raw signal: 5.91 and 7.63 and 6.69 and 6.36
[1]; Concentration (M) 1.56E-07
  dose response raw signal: 7.98 and 8.01 and 8.32 and 8.22
[1]; Concentration (M) 2.50E-06
  dose response raw signal: 4.91 and 6.63 and 5.69 and 5.36
[1]; Concentration (M) 3.13E-07
  dose response raw signal: 8.79 and 8.75 and 7.57 and 7.89
[1]; Concentration (M) 5.00E-06
  dose response raw signal: 4.98 and 5.24 and 5.45 and 6.11
[1]; Concentration (M) 6.25E-07
  dose response raw signal: 8.89 and 8.75 and 7.37 and 7.79
[1]
  NanoBRET binding, result in words: higher affinity for PNCK than the parent
[1]; [5]
  inhibition at 1 µM: 27.5%
[1]; [6]
  inhibition at 10 µM: 84.1%
[2]; Concentration (M) 2.00E-05, replicate values
  dose response raw signal: 4.80 and 4.22 and 5.32 and 4.30

## O=c1[nH]c2ccccc2n1CCCSc1nnc2c(n1)[nH]c1ccccc12 [UM_037, 1-(3-5H-[1,2, 4]triazino [5,6-b]indol-3-ylsulfanylpropyl)-2,3-dihydro-1H-1,3-benzodiazol-2-one]
[1]; Concentration 1.20E-05 M, listed as UM37
  Dose-Response Curve Data (NanoBRET signal, replicates): 6.25 and 6.50 and 6.41
[1]; Concentration 1.50E-06 M, listed as UM37
  Dose-Response Curve Data (NanoBRET signal, replicates): 7.94 and 8.66 and 7.96
[1]; Concentration 1.88E-07 M, listed as UM37
  Dose-Response Curve Data (NanoBRET signal, replicates): 8.18 and 8.37 and 8.94
[1]; Concentration 2.40E-05 M, listed as UM37
  Dose-Response Curve Data (NanoBRET signal, replicates): 4.85 and 4.94 and 5.59
[1]; Concentration 3.00E-06 M, listed as UM37
  Dose-Response Curve Data (NanoBRET signal, replicates): 8.21 (2×) and 8.11
[1]; Concentration 3.75E-07 M, listed as UM37
  Dose-Response Curve Data (NanoBRET signal, replicates): 8.11 and 8.67 and 8.63
[1]; Concentration 6.00E-06 M, listed as UM37
  Dose-Response Curve Data (NanoBRET signal, replicates): 7.28 and 7.38 and 7.80
[1]; Concentration 7.50E-07 M, listed as UM37
  Dose-Response Curve Data (NanoBRET signal, replicates): 8.16 and 8.66 and 8.74
[3]; [7]
  Avg. Normalized % Inhibition, 10uM, ADP Kinase Glo: minimal inhibitory activity

## O=C(O)c1ccc(-c2nc3c([nH]2)CCN(C(=O)c2cc(C4CC4)n[nH]2)C3)cc1 [UM_034]
[1]; [5]
  inhibition at 1 µM: 6.51%
[1]; [6]
  inhibition at 10 µM: 7.78%
[3]; [7]
  inhibition at 10 µM: 51.7%

## O=C1NC(=O)C(=Cc2ccc(Sc3nc4ccccc4[nH]3)o2)C(=O)N1 [UM_036]
[1]; HEK293, read-out: Avg. Normalized % Inhibition, 1uM, Nanobret
  inhibition at 1 µM: 2.83%
[1]; HEK293, read-out: Avg. Normalized % Inhibition, 10uM, Nanobret
  inhibition at 10 µM: 16.8%
[3]
  inhibition at 10 µM: 39.2%

## Oc1c(/C=N/c2ccc(Br)cn2)sc2ccccc12 [UM_234]
[1]; [5]
  inhibition at 1 µM: 5.92%
[1]; [6]
  inhibition at 10 µM: 17.1%
[4]
  aqueous solubility: poor aqueous solubility

## Cc1ccc(C)c(OCc2nc(-c3cccnn3)no2)c1C [UM_245]
[4]
  aqueous solubility: poor aqueous solubility

## Cc1ccc(F)c(S(=O)(=O)Nc2ccc(-c3nn(C)cc3C(=O)O)cc2)c1 [UM_023]
[1]; [5]
  inhibition at 1 µM: 2.86%
[1]; [6]
  inhibition at 10 µM: 17.6%
[3]; [7]
  inhibition at 10 µM: 38.2%

## CC(C)(C(=O)O)c1ccc(NS(=O)(=O)c2cc(F)c(F)cc2F)cc1 [UM_025]
[1]; [5]
  inhibition at 1 µM: 0%
[1]; [6]
  inhibition at 10 µM: 17.2%
[3]; [7]
  inhibition at 10 µM: 75.3%

## O=C(O)Cc1cc(C2CCN(C(=O)c3ccc(C(F)(F)F)nc3O)CC2)[nH]n1 [UM_031]
[1]; [5]
  inhibition at 1 µM: 13.3%
[1]; [6]
  inhibition at 10 µM: 14.6%
[3]; [7]
  inhibition at 10 µM: 7.65%

## Cc1c(C(=O)O)sc2ncnc(NCc3nncn3CCc3ccccc3)c12 [UM_033]
[1]; [5]
  inhibition at 1 µM: 8.63%
[1]; [6]
  inhibition at 10 µM: 13.5%
[3]; [7]
  inhibition at 10 µM: 50.8%

## CC1CCc2c(sc(NC(=O)CSc3ncc(-c4ccc(F)cc4)[nH]3)c2C(N)=O)C1 (stereo not drawn) [UM_252]
[1]; HEK293
  IC50: 1090 nM
[1]; Concentration 1.25E-06 M
  Dose-Response Curve Data (NanoBRET signal, replicates): 5.69 and 4.76 and 5.57 and 5.29 and 6.48
[1]; Concentration 2.00E-05 M
  Dose-Response Curve Data (NanoBRET signal, replicates): 4.90 and 5.31 and 5.12 and 5.26 and 5.44
[1]; Concentration 2.50E-06 M
  Dose-Response Curve Data (NanoBRET signal, replicates): 5.05 and 5.03 and 4.81 and 5.42 and 6.45
[1]; Concentration 5.00E-06 M
  Dose-Response Curve Data (NanoBRET signal, replicates): 4.80 and 4.70 and 5.14 and 6.28 and 5.58
[1]; Concentration 6.25E-07 M
  Dose-Response Curve Data (NanoBRET signal, replicates): 5.77 and 5.39 and 5.91 and 7.06 and 6.32
[1]
  NanoBRET binding, result in words: improving from the IC50 of UM_228 by one order of magnitude
[1]; [5]
  inhibition at 1 µM: 49.9%
[1]; [6]
  inhibition at 10 µM: 79.1%
[2]; Concentration 1.00E-05 M
  Dose-Response Curve Data (NanoBRET signal, replicates): 5.51 and 5.44 and 5.21 and 5.32 and 4.78
[2]; Concentration 1.56E-07 M
  Dose-Response Curve Data (NanoBRET signal, replicates): 6.58 and 6.82 and 6.54 and 7.24 and 6.53
[2]; Concentration 3.13E-07 M
  Dose-Response Curve Data (NanoBRET signal, replicates): 6.79 and 6.18 and 7.47 and 6.16 and 7.19

## O=C(O)c1n[nH]c2c1CN(C(=O)c1ccc(N3CCOCC3)cc1)CC2 [UM_030]
[1]; [5]
  inhibition at 1 µM: 0%
[1]; [6]
  inhibition at 10 µM: 11.3%
[3]; [7]
  Avg. Normalized % Inhibition, 10uM, ADP Kinase Glo: Negligible
